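Interpolation was linear, between the two tested concentrations surrounding the appropriate level; five concentrations were tested over 48 hours in 96-well plates. GI50 marks 50% less growth.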 The source made the active and inactive calls. Cut-off read from the data, not from the text of the source: active = GI50 up to about 1.1 µM and inactive = higher.
Tests used:
Assay in all cases: NCI-60 cell line screen, 48 h
[1] = tested on: 786-0
[2] = tested on: A549
[3] = tested on: ACHN
[4] = tested on: CAKI-1
[5] = tested on: CCRF-CEM
[6] = tested on: COLO 205
[7] = tested on: DLD-1
[8] = tested on: DMS-114
[9] = tested on: EKVX
[10] = tested on: HCC 2998
[11] = tested on: HCT-116
[12] = tested on: HL-60
[13] = tested on: HOP-62
[14] = tested on: HOP-92
[15] = tested on: HT-29
[16] = tested on: IGROV-1
[17] = tested on: K562
[18] = tested on: KM-20L2
[19] = tested on: KM12
[20] = tested on: LOX IMVI
[21] = tested on: LXFL 529
[22] = tested on: M14
[23] = tested on: M19-MEL
[24] = tested on: MOLT-4
[25] = tested on: Malme-3M
[26] = tested on: NCI-H226
[27] = tested on: NCI-H23
[28] = tested on: NCI-H460
[29] = tested on: NCI-H522
[30] = tested on: OVCAR-3
[31] = tested on: OVCAR-4
[32] = tested on: OVCAR-5
[33] = tested on: OVCAR-8
[34] = tested on: RPMI-8226
[35] = tested on: RXF 393
[36] = tested on: SF-268
[37] = tested on: SF-295
[38] = tested on: SF-539
[39] = tested on: SK-MEL-28
[40] = tested on: SK-MEL-2
[41] = tested on: SK-MEL-5
[42] = tested on: SK-OV-3
[43] = tested on: SN12C
[44] = tested on: SNB-19
[45] = tested on: SNB-75
[46] = tested on: SNB-78
[47] = tested on: SW-620
[48] = tested on: TK-10
[49] = tested on: U-251
[50] = tested on: UACC-257
[51] = tested on: UO-31
[52] = tested on: XF498
[53] = tested on: A498
[54] = tested on: DMS-273
[55] = tested on: HCT-15
[56] = tested on: MCF7
[57] = tested on: NCI/ADR-RES

Structure (SMILES): CCc1ccccc1NC(=O)C1=C(C)NC(C)=C(C(=O)Nc2c(CC)cccc2CC)C1c1ccc2c(c1)OCO2 (stereo not drawn)
- GI50 [1]: 18.3 µM (inactive)
- GI50 [2]: 17.6 µM (inactive)
- GI50 [3]: 20.5 µM (inactive)
- GI50 [4]: 19.5 µM (inactive)
- GI50 [5]: 19.1 µM (inactive)
- GI50 [6]: 19.5 µM (inactive)
- GI50 [7]: 21.9 µM (inactive)
- GI50 [8]: 20.2 µM (inactive)
- GI50 [9]: 24.2 µM (inactive)
- GI50 [10]: 16.5 µM (inactive)
- GI50 [11]: 16.8 µM (inactive)
- GI50 [12]: 23 µM (inactive)
- GI50 [13]: 19.7 µM (inactive)
- GI50 [14]: 12.7 µM (inactive)
- GI50 [15]: 18 µM (inactive)
- GI50 [16]: 25.4 µM (inactive)
- GI50 [17]: 22.7 µM (inactive)
- GI50 [18]: 17.6 µM (inactive)
- GI50 [19]: 16.1 µM (inactive)
- GI50 [20]: 16.9 µM (inactive)
- GI50 [21]: 17 µM (inactive)
- GI50 [22]: 16.4 µM (inactive)
- GI50 [23]: 22.1 µM (inactive)
- GI50 [24]: 19.1 µM (inactive)
- GI50 [25]: 16.5 µM (inactive)
- GI50 [26]: 19.1 µM (inactive)
- GI50 [27]: 16.7 µM (inactive)
- GI50 [28]: 16.6 µM (inactive)
- GI50 [29]: 16.2 µM (inactive)
- GI50 [30]: 17.8 µM (inactive)
- GI50 [31]: 15.2 µM (inactive)
- GI50 [32]: 18.2 µM (inactive)
- GI50 [33]: 25.8 µM (inactive)
- GI50 [34]: 15.8 µM (inactive)
- GI50 [35]: 12.4 µM (inactive)
- GI50 [36]: 20.3 µM (inactive)
- GI50 [37]: 20.3 µM (inactive)
- GI50 [38]: 21.2 µM (inactive)
- GI50 [39]: 18.1 µM (inactive)
- GI50 [40]: 15.2 µM (inactive)
- GI50 [41]: 14.6 µM (inactive)
- GI50 [42]: 34.5 µM (inactive)
- GI50 [43]: 26 µM (inactive)
- GI50 [44]: 24.9 µM (inactive)
- GI50 [45]: 21.8 µM (inactive)
- GI50 [46]: 26.9 µM (inactive)
- GI50 [47]: 18.1 µM (inactive)
- GI50 [48]: 22.3 µM (inactive)
- GI50 [49]: 14.6 µM (inactive)
- GI50 [50]: 17.7 µM (inactive)
- GI50 [51]: 16.2 µM (inactive)
- GI50 [52]: 28.4 µM (inactive)

Structure (SMILES): Cc1cc(-c2ccc(/N=N/c3ccc4c(S(=O)(=O)O)cc(S(=O)(=O)O)c(N)c4c3O)c(C)c2)ccc1/N=N/c1ccc2c(S(=O)(=O)O)cc(S(=O)(=O)O)c(N)c2c1O [EVANS BLUE FREE ACID]
- GI50 [53]: > 100 µM (inactive)
- GI50 [2]: > 100 µM (inactive)
- GI50 [54]: > 100 µM (inactive)
- GI50 [9]: > 100 µM (inactive)
- GI50 [10]: > 100 µM (inactive)
- GI50 [55]: > 100 µM
- GI50 [12]: > 100 µM (inactive)
- GI50 [15]: > 100 µM (inactive)
- GI50 [17]: > 100 µM (inactive)
- GI50 [18]: > 100 µM (inactive)
- GI50 [23]: > 100 µM (inactive)
- GI50 [56]: > 100 µM (inactive)
- GI50 [26]: > 76.2 µM (inactive)
- GI50 [27]: > 100 µM (inactive)
- GI50 [28]: > 100 µM (inactive)
- GI50 [29]: > 100 µM (inactive)
- GI50 [57]: > 100 µM (inactive)
- GI50 [30]: > 100 µM (inactive)
- GI50 [31]: 59.2 µM (inactive)
- GI50 [32]: > 100 µM (inactive)
- GI50 [33]: > 100 µM (inactive)
- GI50 [35]: > 95.5 µM (inactive)
- GI50 [36]: > 100 µM (inactive)
- GI50 [37]: > 100 µM (inactive)
- GI50 [38]: > 100 µM (inactive)
- GI50 [39]: > 100 µM (inactive)
- GI50 [40]: > 100 µM (inactive)
- GI50 [42]: > 100 µM (inactive)
- GI50 [43]: > 100 µM (inactive)
- GI50 [45]: 77.3 µM (inactive)
- GI50 [46]: > 85.7 µM (inactive)
- GI50 [47]: > 100 µM (inactive)
- GI50 [49]: > 100 µM (inactive)
- GI50 [50]: > 100 µM (inactive)
- GI50 [51]: 62.7 µM (inactive)
- GI50 [52]: > 77.3 µM (inactive)
